Laboratory results published in patent US20220096415A1, “Composition for Improving Cognitive Function” (Demencare Laboratory Inc., priority 2018, published 2022).

Columns and labels:
[1] = target: T1, recombinant BACE1 (rBACE1) (Homo sapiens, UniProt P56817); assay: BACE1 activity with recombinant BACE1 in the presence of LA or c9,t11-CLA; assay type: biochemical; settings: 100 μM; for BACE1 activity compared to just a solvent DMSO: rBACE1, 37° C. 15 min, then substrate 1 h
T1 construct: purchased R&D Systems 931-AS
Procedure: Whether or not c9,t11-CLA directly acted on BACE1 and changed its activity was checked by measuring the BACE1 activity in the presence or absence of LA or c9,t11-CLA while recombinant BACE1 (rBACE1, catalog number 931-AS; R&D Systems, Minneapolis, Minn., USA) was used (FIG. 6). First, 100 μM LA or c9,t11-CLA, which had been dissolved in DMSO, was added to rBACE1, and the mixture was incubated at 37° C. for 15 min. Next, a chromogenic substrate was added and incubated at 37° C. for 1 h. Then, the BACE1 activity was measured.

[2] = system: neurons from APP-KI mouse; assay: Human Aβ42 secreted by APP-KI mouse neurons; assay type: cell-based; settings: LA-treated versus c9,t11-CLA-treated nerves, p<0.05, not shown
Excerpt: The amount of Aβ42 generated from endogenous amyloid-β (Aβ) precursor protein APP is usually very small. Thus, it is difficult to accurately quantify Aβ42 secreted from wild-type mouse neurons. Then, the mouse Aβ sequence was changed to a human form (in FIG. 3(B), the mouse and human amino acid sequences). After that, neurons from a knock-in mouse, into which a familial Alzheimer's disease mutation that increases the level of Aβ42 produced was introduced, (Apptm3.1Tcs/Apptm3.1Tcs) (hereinafter, the same as a mouse called APP-KI mouse described in Non-Patent Literature 6: Saito et al. [2014] Nature Neuroscience 17, 661-663) were cultured in a manner similar to the above. Finally, human Aβ42 secreted while the same experiments as in FIG. 3(A) were repeated was quantified (Non-Patent Literature 7: Kimura, Hata, Suzuki [2016] J. Biol. Chem. 291, 24041-24053).

[3] = system: neurons; settings: Non-Patent Literature 1; cited from earlier work
[4] = system: neural stem cells; settings: Non-Patent Literature 3; cited from earlier work
[5] = system: wild-type mouse neurons; assay: Aβ40 secreted into culture medium by wild-type mouse neurons (sandwich ELISA); assay type: cell-based; settings: 10 uM, 24 h; compared with LA-added neurons (LA set to 1.0)
Procedure: Neurons in the cerebral cortex and hippocampus were isolated from the fetal brain of wild-type mouse (C57BL6/J) and were cultured in Neurobasal Medium containing 2% B-27 Supplement (Invitrogen), 4 mM Glutamax I, and 5% heat-inactivated horse serum (the other detailed conditions were substantially the same as in the protocol disclosed in Non-Patent Literature 4: Chiba et al., [2014] Mol. Biol. Cell 25, 3569-3580).
Primary culture nerves (5×10^3 cells), which had been cultured by the above procedure for 9 to 12 days (DIV9-12), were cultured for 24 h in each of a culture medium containing 10 uM linoleic acid (LA “L1376”, Sigma-Aldrich, Inc.) or a culture medium containing 10 uM c9,t11-CLA (purity: 98%, ABCAM, Inc.) (the experiment was triplicate: n=3 to 6). Next, for each of a sample using LA or a sample using c9,t11-CLA, mouse amyloid β-protein 40 (Aβ40) secreted into the culture medium was quantified by sandwich ELISA (sELISA). […]
The complex was then reacted with an IgG Fab′ fragment of HRP (Horseradish peroxidase)-labeled mouse/rat Aβ(1-16) sequence-specific (rabbit) antibody (IBL, Inc.: Immuno-Biological Laboratories Co, Ltd.). After that, TMB (3,3′,5,5′-tetramethyl benzidine) was used as a chromogenic substrate for quantification. […] In FIG. 3(A), while the level of Aβ40 secreted when LA was added was set to 1.0, the level of Aβ40 secreted when c9,t11-CLA was added was quantified.

[6] = system: wild-type neurons; assay: Western blot of APP, BACE1 and PS1 NTF levels in wild-type neurons; assay type: cell-based, mouse; settings: c9,t11-CLA versus LA
Procedure: Western blot was used to analyze the level of APP (Aβ precursor, which is a substrate for BACE1), BACE1, PS1 NTF (a catalytic unit of γ-Secretase, which is an enzyme for cleaving CTFβ, an APP C-terminal fragment containing an Aβ sequence cleaved by BACE1, to generate Aβ), and a membrane protein Flotillin (control protein) in the LA-added or c9,t11-CLA-added wild-type neurons. The whole cells were lysed in RIPA buffer (components: 50 mM Tris-HCl [pH 8.0], 150 mM NaCl, 0.5% SDS, 0.5% sodium deoxycholate, and 1% Nonidet P-40). The extracted proteins (15 μg protein) were subjected to electrophoresis using SDS-polyacrylamide gel. Then, Western blot with each antibody was used to analyze APP (with the same as an antibody G369, described in Non-Patent Literature 8: Oishi et al. [1997] Mol. Med. 3, 111-123), BACE1 (with an antibody D10E5; Cell Signaling Technology, Inc.), PS1 NTF (with the same as an antibody Ab14, described in Non-Patent Literature 9: Thinakaran et al. [1996] Neuron, 17, 181-190), and Flotillin-1 (with an antibody 610821, BD Bioscience, Inc.). The protein reacted with each antibody was detected using a Clarity Western ECL substrate (Cat *170-5061; Bio-Rad) and quantified with LAS-4000 (Fujifilm).

[7] = system: BACE1; assay: BACE1 activity of wild-type mouse neurons (β-Secretase Activity Assay Kit); assay type: cell-based; settings: 10 uM, 24 h, compared with LA-added neurons
Procedure: The BACE1 activity of the above wild-type mouse neurons used in the experiments shown in FIG. 3 was measured using a β-Secretase (BACE1) Activity Assay Kit (“ab65357”, Abcam, Inc.) in accordance with the instructions.

[8] = system: AD model mice; assay: AD model mice with oral intake of c9,t11-CLA: brain staining (IL-10, phosphorylated tau, astrocytes, microglia); assay type: in vivo, mouse
[9] = hippocampus, oral intake versus no intake

T1 sequence (P56817 46-457 limits assumed): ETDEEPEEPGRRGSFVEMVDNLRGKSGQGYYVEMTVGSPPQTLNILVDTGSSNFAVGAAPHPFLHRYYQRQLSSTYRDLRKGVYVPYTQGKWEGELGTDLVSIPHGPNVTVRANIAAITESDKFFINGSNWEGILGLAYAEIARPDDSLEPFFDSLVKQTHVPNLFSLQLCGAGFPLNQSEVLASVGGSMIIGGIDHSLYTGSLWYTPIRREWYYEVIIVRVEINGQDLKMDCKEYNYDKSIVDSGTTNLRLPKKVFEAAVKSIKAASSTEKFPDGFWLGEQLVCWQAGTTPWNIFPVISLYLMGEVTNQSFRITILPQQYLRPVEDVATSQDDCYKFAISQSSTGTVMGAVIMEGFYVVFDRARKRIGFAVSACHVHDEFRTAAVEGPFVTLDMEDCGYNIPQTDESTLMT

| level of human Aβ42 secreted [2] | Structure (SMILES) | BACE1 activity compared to just a solvent DMSO [1] | prevention of glutamic acid-induced hyper-excited state and cell death of neurons (neuroprotective effect) [3] | difference in BACE1 activity between LA and c9,t11-CLA ([1]; rBACE1) | effect on growth of neural stem cells [4] | level of Aβ produced/secreted (mouse Aβ40) [5] | level of APP [6] | level of BACE1 [6] | level of PS1 NTF [6] | BACE1 activity of neurons [7] | Microglia (Iba1 staining) ([8]; cortex, CLA intake group) | Microglia (Iba1 staining) ([8]; hippocampus, CLA intake group) | number of IL-10-expressing cells ([8]; hippocampus, CLA intake group) | Astrocyte staining [8, 9] | Phosphorylated tau protein staining [8, 9] |
| --- | --- | --- | --- | --- | --- | --- | --- | --- | --- | --- | --- | --- | --- | --- | --- |
| significantly lower | CCCCC/C=C\C/C=C\CCCCCCCC(=O)O [LA, linoleic acid, reference compound] | increase in the activity |  |  |  |  |  |  |  |  |  |  |  |  |  |
|  | CCCCCC/C=C/C=C\CCCCCCCC(=O)O [c9,t11-CLA, c9,t11-conjugated linoleic acid] | increase in the activity | can exert the effects | no observed significant difference | promoting growth of neural stem cells | significantly lower | no observed significant difference | no observed significant difference | no observed significant difference | significantly lower | significant increase | significant increase | significantly increased | tended to decrease | tended to decrease |
|  | CCCCC/C=C\C=C\CCCCCCCCC(=O)O [t10,c12-CLA, t10,c12-conjugated linoleic acid, reference compound] |  | fails to exert such effects |  | inhibition of growth of neural stem cells |  |  |  |  |  |  |  |  |  |  |
